Results: patent publication US8895585B2, “Nicotinamide derivative or salt thereof” (FUJIFILM Corporation, priority 2010, dated 2014)
Counter-ions that a name gives are not always drawn. Like-named read-outs stand apart in the source and are kept apart here.

Columns and labels:
[1] = biological target: T1, glutathione S-transferase (GST)-fused full-length human Syk protein (Homo sapiens, UniProt P43405); experiment: Syk enzyme assay; assay type: biochemical
T1 construct: (GST)-fused full-length human Syk protein; GST (glutathione S-transferase); purchased Carna Biosciences
How it was run: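 GST-tagged full-length human Syk (baculovirus) preincubated with compound 15 min at room temperature (pH 7.0, 10 mM MgCl2), then reacted 40 min with 0.4 μM biotinylated peptide substrate and 27 μM ATP (final). Phosphorylation read by HTRF (615/665 nm) after EDTA stop; IC50 reported.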

THP-1 cells = experiment: TNFα generation assay; assay type: cell-based, human; details: Homo sapiens
How it was run: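 THP-1 cells differentiated to macrophage-like cells with 10 ng/ml IFN-γ for 2 days, preincubated with compound 30 min at room temperature, then cultured 7 h on plates coated with human IgG (10 μg/ml). Secreted TNFα measured by ELISA or AlphaLISA.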

[2] = Syk enzyme assay, Test Example 1, read-out: IC50 of Syk-inhibitory activity
[3] = THP-1, THP-1 cells, Table 22, read-out: IC50 in TNFα generation assay
[4] = read-out: Syk-inhibitory activity (IC50)
[5] = THP-1, 7 h, IFN-γ-differentiated THP-1 cells on human IgG-coated plate, cultured 7 hours, read-out: TNFα generation inhibitory activity (IC50)

| IC50 [1, 2] [nM] | IC50 (THP-1 cells; [3]) [nM] | IC50 [1, 4] [nM] | IC50 (THP-1 cells; [5]) [nM] | SMILES |
| --- | --- | --- | --- | --- |
| < 10 | 130 to 200 |  |  | NC(=O)c1cc(F)c(N[C@@H]2CCCC[C@@H]2N)nc1Nc1ccc2nc(OCCN3CCOC3=O)ccc2c1 (relative stereo) [Example 004-201, 6-(cis-2-aminocyclohexylamino)-5-fluoro-2-((2-(2-(2-oxooxazolidin-3-yl)ethoxy)quinolin-6-yl)amino)nicotinamide] |
| 10 to 50 | 130 to 200 |  |  | NC(=O)c1cc(F)c(N[C@@H]2CCCC[C@@H]2N)nc1Nc1cncc(-c2ncccn2)c1 (relative stereo) [Example 004-214, 6-(cis-2-aminocyclohexylamino)-5-fluoro-2-((5-(pyrimidin-2-yl)pyridin-3-yl)amino)nicotinamide] |
| < 10 | 65 to 130 |  |  | NC(=O)c1cc(F)c(N[C@@H]2CCCC[C@@H]2N)nc1Nc1cncc(-c2cccc([N+](=O)[O-])c2)c1 (relative stereo) [Example 004-215, 6-(cis-2-aminocyclohexylamino)-5-fluoro-2-((5-(3-nitrophenyl)pyridin-3-yl)amino)nicotinamide] |
| < 10 | 65 to 130 |  |  | NC(=O)c1cc(F)c(N[C@@H]2CCCC[C@@H]2N)nc1Nc1cncc(-c2cccc(N)c2)c1 (relative stereo) [Example 004-217, 6-(cis-2-aminocyclohexylamino)-2-((5-(3-aminophenyl)pyridin-3-yl)amino)-5-fluoronicotinamide] |
| < 10 | 65 to 130 |  |  | NC(=O)c1cc(F)c(N[C@@H]2CCCC[C@@H]2N)nc1Nc1cncc(-c2ccc(N)cc2)c1 (relative stereo) [Example 004-218, 6-(cis-2-aminocyclohexylamino)-2-((5-(4-aminophenyl)pyridin-3-yl)amino)-5-fluoronicotinamide] |
| < 10 | 65 to 130 |  |  | CNc1cccc(-c2cncc(Nc3nc(N[C@@H]4CCCC[C@@H]4N)c(F)cc3C(N)=O)c2)c1 (relative stereo) [Example 004-219, 6-(cis-2-aminocyclohexylamino)-5-fluoro-2-((5-(3-(methylamino)phenyl)pyridin-3-yl)amino)nicotinamide] |
| < 10 | 65 to 130 |  |  | CNc1ccc(-c2cncc(Nc3nc(N[C@@H]4CCCC[C@@H]4N)c(F)cc3C(N)=O)c2)cc1 (relative stereo) [Example 004-220, 6-(cis-2-aminocyclohexylamino)-5-fluoro-2-((5-(4-(methylamino)phenyl)pyridin-3-yl)amino)nicotinamide] |
| < 10 | 130 to 200 |  |  | NC(=O)c1cc(F)c(N[C@@H]2CCCC[C@@H]2N)nc1Nc1cncc(-c2ccc(N3CCOCC3)cc2)c1 (relative stereo) [Example 004-222, 6-(cis-2-aminocyclohexylamino)-5-fluoro-2-((5-(4-morpholinophenyl)pyridin-3-yl)amino)nicotinamide] |
| < 10 | 130 to 200 |  |  | NC(=O)c1cc(F)c(N[C@@H]2CCCC[C@@H]2N)nc1Nc1cncc(-c2ccc(N3CCCC3=O)cc2)c1 (relative stereo) [Example 004-226, 6-(cis-2-aminocyclohexylamino)-5-fluoro-2-((5-(4-(2-oxopyrrolidin-1-yl)phenyl)pyridin-3-yl)amino)nicotinamide] |
| < 10 | 130 to 200 |  |  | CN(C)c1cccc(-c2cncc(Nc3nc(N[C@@H]4CCCC[C@@H]4N)c(F)cc3C(N)=O)c2)c1 (relative stereo) [Example 004-227, 6-(cis-2-aminocyclohexylamino)-2-((5-(3-(dimethylamino)phenyl)pyridin-3-yl)amino)-5-fluoronicotinamide] |
| < 10 | 65 to 130 |  |  | NC(=O)c1cc(F)c(N[C@@H]2CCCC[C@@H]2N)nc1Nc1cncc(-c2nnco2)c1 (relative stereo) [Example 004-229, 2-((5-(1,3,4-oxadiazol-2-yl)pyridin-3-yl)amino)-6-((cis-2-aminocyclohexyl)amino)-5-fluoronicotinamide] |
| < 10 | < 65 |  |  | NC(=O)c1cc(F)c(N[C@@H]2CCCC[C@@H]2N)nc1Nc1ccc2ncncc2c1 (relative stereo) [Example 006-062, 6-(cis-2-aminocyclohexylamino)-5-fluoro-2-(quinazolin-6-ylamino)nicotinamide] |
| < 10 | 130 to 200 |  |  | NC(=O)c1cc(F)c(N[C@@H]2CCCC[C@@H]2N)nc1Nc1cncc(-c2cc[nH]c2)c1 (relative stereo) [Example 006-116, 2-((5-(1H-pyrrol-3-yl)pyridin-3-yl)amino)-6-((cis-2-aminocyclohexyl)amino)-5-fluoronicotinamide] |
| < 10 | 65 to 130 |  |  | NC(=O)c1cc(F)c(N[C@@H]2CCCC[C@@H]2N)nc1Nc1cccc(-n2ccnn2)c1 (relative stereo) [Example 006-122, 2-(3-(1H-1,2,3-triazol-1-yl)phenylamino)-6-((cis-2-aminocyclohexyl)amino)-5-fluoronicotinamide] |
| < 10 | 130 to 200 |  |  | NC(=O)c1cc(F)c(N[C@@H]2CCCC[C@@H]2N)nc1Nc1cncc(-n2cccc2)c1 (relative stereo) [Example 006-123, 2-((5-(1H-pyrrol-1-yl)pyridin-3-yl)amino)-6-(cis-2-aminocyclohexylamino)-5-fluoronicotinamide] |
| < 10 | 130 to 200 |  |  | NC(=O)c1cc(F)c(N[C@@H]2CCCC[C@@H]2N)nc1Nc1ccnc(-n2cccc2)c1 (relative stereo) [Example 006-124, 2-((2-(1H-pyrrol-1-yl)pyridin-4-yl)amino)-6-((cis-2-aminocyclohexyl)amino)-5-fluoronicotinamide] |
| < 10 | 65 to 130 |  |  | NC(=O)c1cc(F)c(N[C@@H]2CCCC[C@@H]2N)nc1Nc1ccnc(-n2nccn2)c1 (relative stereo) [Example 006-125, 2-((2-(2H-1,2,3-triazol-2-yl)pyridin-4-yl)amino)-6-((cis-2-aminocyclohexyl)amino)-5-fluoronicotinamide] |
| < 10 | < 65 |  |  | NC(=O)c1cc(F)c(N[C@@H]2CCCC[C@@H]2N)nc1Nc1ccnc(-n2ccnn2)c1 (relative stereo) [Example 006-126, 2-((2-(1H-1,2,3-triazol-1-yl)pyridin-4-yl)amino)-6-((cis-2-aminocyclohexyl)amino)-5-fluoronicotinamide] |
| 10 to 50 | 130 to 200 |  |  | NC(=O)c1cc(F)c(N[C@@H]2CCCC[C@@H]2N)nc1Nc1ccnc(-n2ccnc2)c1 (relative stereo) [Example 006-128, 2-((2-(1-imidazol-1-yl)pyridin-4-yl)amino)-6-((cis-2-aminocyclohexyl)amino)-5-fluoronicotinamide] |
| < 10 | < 65 |  |  | NC(=O)c1cc(F)c(N[C@@H]2CCCC[C@@H]2N)nc1Nc1cncc(-n2cccn2)c1 (relative stereo) [Example 006-129, 2-((5-(1H-pyrazol-1-yl)pyridin-3-yl)amino)-6-((cis-2-aminocyclohexyl)amino)-5-fluoronicotinamide] |
| 10 to 50 | 65 to 130 |  |  | NC(=O)c1cc(F)c(N[C@@H]2CCCC[C@@H]2N)nc1Nc1ccnc(-n2cccn2)c1 (relative stereo) [Example 006-130, 2-((2-(1H-pyrazol-1-yl)pyridin-4-yl)amino)-6-((cis-2-aminocyclohexyl)amino)-5-fluoronicotinamide] |
| < 10 | 65 to 130 |  |  | NC(=O)c1cc(F)c(N[C@@H]2CCCC[C@@H]2N)nc1Nc1ccnc(Cl)c1 (relative stereo) [Example 006-163, 6-((cis-2-aminocyclohexyl)amino)-2-((2-chloropyridin-4-yl)amino)-5-fluoronicotinamide] |
|  |  | ≤ 1000 | ≤ 200 | NC(=O)c1cc(F)c(N[C@@H]2CCCC[C@@H]2N)nc1Nc1cnc2ccccc2c1 (relative stereo) [Example 7, 6-(cis-2-aminocyclohexylamino)-5-fluoro-2-(quinolin-3-ylamino)nicotinamide] |
|  |  | ≤ 1000 | ≤ 200 | NC(=O)c1cc(F)c(N[C@@H]2CCCC[C@@H]2N)nc1Nc1cnc2ncccc2c1 (relative stereo) [Example 10-2, 6-(cis-2-aminocyclohexylamino)-5-fluoro-2-((1,8-naphthyridin-3-yl)amino)nicotinamide] |
| 10 to 50 | 130 to 200 |  |  | NC(=O)c1cc(F)c(N[C@@H]2CCCC[C@@H]2N)nc1Nc1cncc(NC(=O)c2ccccn2)c1 (relative stereo) [Example 027-020, N-(5-(6-(cis-2-aminocyclohexylamino)-3-carbamoyl-5-fluoropyridin-2-yl)aminopyridin-3-yl)picolinamide] |
| < 10 | 130 to 200 |  |  | CN(C)C(=O)c1cc2cc(Nc3nc(N[C@@H]4CCCC[C@@H]4N)c(F)cc3C(N)=O)ccc2[nH]1 (relative stereo) [Example 029-016, 5-((6-(cis-2-aminocyclohexylamino)-3-carbamoyl-5-fluoropyridin-2-yl)amino)-N,N-dimethyl-1H-indole-2-carboxamide] |
|  |  | ≤ 1000 | ≤ 200 | Cc1cncc(Nc2nc(N[C@@H]3CCCC[C@@H]3N)c(Cl)cc2C(N)=O)c1 (relative stereo) [Example 34, 6-(cis-2-aminocyclohexylamino)-5-chloro-2-(5-methylpyridin-3-ylamino)nicotinamide•hydrochloride] |
